Results: ChEMBL document CHEMBL1131645, “Synthesis and activity studies of N-[omega-N'-(adamant-1'-yl)aminoalkyl]- 2-(4'-dimethylaminophenyl)acetamides: in the search of selective inhibitors for the different molecular forms of acetylcholinesterase” (Bioorg Med Chem Lett, 1998)

Key:
Acetylcholinesterase [1] = target: T1, Acetylcholinesterase (Torpedo californica, UniProt P04058); experiment: Compound was evaluated for competitive inhibition constant of acetylcholinesterase (AChE) from Torpedo californica; set-up: species or system Tetronarce californica
T1 sequence (P04058 whole entry): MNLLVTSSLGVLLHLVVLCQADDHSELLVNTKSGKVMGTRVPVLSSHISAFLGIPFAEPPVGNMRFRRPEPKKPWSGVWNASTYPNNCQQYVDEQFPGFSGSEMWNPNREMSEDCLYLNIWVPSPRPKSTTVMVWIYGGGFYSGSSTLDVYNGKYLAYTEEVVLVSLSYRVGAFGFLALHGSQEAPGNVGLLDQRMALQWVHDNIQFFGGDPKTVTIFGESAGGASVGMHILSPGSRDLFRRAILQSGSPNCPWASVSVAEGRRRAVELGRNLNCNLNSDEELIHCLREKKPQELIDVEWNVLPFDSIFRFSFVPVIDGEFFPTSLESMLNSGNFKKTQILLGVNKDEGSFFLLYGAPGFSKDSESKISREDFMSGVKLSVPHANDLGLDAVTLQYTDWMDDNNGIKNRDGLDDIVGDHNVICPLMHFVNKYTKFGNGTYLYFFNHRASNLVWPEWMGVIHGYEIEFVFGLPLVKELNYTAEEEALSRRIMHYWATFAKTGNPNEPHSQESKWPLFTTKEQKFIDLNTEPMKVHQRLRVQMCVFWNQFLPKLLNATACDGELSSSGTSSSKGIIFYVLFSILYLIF

[2] = target: Acetylcholinesterase (Torpedo californica) (UniProt P04058); experiment: Compound was evaluated for non-competitive inhibition constant of acetylcholinesterase (AChE) from Torpedo californica; conditions: Tetronarce californica
Sequence of Acetylcholinesterase (Torpedo californica) (P04058 22-564 limits assumed): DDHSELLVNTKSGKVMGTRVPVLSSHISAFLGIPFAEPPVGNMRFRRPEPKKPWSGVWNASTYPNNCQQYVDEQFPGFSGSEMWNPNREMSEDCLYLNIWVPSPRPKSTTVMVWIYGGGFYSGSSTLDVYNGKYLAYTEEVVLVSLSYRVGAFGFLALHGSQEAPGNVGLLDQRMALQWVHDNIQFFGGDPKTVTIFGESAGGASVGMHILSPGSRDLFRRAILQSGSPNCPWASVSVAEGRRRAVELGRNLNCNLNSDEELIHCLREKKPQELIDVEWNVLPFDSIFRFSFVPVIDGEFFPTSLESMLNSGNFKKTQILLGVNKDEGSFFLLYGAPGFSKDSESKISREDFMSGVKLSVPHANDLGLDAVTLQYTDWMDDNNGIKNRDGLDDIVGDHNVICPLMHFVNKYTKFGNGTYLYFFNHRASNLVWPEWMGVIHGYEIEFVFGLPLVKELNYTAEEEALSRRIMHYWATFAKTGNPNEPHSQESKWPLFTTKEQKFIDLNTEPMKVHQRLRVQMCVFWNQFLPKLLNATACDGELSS

Acetylcholinesterase [3] = target: Acetylcholinesterase (Homo sapiens, UniProt P22303)
Sequence of Acetylcholinesterase (Homo sapiens, UniProt P22303) (P22303 whole entry): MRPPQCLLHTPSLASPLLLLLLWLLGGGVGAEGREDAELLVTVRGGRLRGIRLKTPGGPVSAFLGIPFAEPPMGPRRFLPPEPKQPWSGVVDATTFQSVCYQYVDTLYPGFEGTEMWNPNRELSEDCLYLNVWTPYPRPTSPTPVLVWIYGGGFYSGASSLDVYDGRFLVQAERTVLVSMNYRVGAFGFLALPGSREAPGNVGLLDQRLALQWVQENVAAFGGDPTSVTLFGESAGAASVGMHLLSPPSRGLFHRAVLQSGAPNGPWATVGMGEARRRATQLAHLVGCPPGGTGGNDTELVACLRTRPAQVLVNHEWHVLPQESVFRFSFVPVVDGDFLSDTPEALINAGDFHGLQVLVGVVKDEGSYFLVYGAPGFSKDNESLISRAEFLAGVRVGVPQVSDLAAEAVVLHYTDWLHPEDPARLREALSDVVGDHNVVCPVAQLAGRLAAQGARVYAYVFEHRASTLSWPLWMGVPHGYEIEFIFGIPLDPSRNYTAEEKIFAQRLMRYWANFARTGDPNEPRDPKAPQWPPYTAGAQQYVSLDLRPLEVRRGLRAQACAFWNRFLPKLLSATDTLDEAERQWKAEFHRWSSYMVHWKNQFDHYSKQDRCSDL
Description: Compound was evaluated for the inhibition of acetylcholinesterase (AChE) in human erythrocytes

Acetylcholinesterase [4] = target: T1, Acetylcholinesterase; experiment: Compound was evaluated for the inhibition of acetylcholinesterase in Torpedo californica; set-up: species or system Tetronarce californica
Acetylcholinesterase [5] = target: T2, Acetylcholinesterase (Electrophorus electricus, UniProt O42275)
T2 sequence (O42275 whole entry): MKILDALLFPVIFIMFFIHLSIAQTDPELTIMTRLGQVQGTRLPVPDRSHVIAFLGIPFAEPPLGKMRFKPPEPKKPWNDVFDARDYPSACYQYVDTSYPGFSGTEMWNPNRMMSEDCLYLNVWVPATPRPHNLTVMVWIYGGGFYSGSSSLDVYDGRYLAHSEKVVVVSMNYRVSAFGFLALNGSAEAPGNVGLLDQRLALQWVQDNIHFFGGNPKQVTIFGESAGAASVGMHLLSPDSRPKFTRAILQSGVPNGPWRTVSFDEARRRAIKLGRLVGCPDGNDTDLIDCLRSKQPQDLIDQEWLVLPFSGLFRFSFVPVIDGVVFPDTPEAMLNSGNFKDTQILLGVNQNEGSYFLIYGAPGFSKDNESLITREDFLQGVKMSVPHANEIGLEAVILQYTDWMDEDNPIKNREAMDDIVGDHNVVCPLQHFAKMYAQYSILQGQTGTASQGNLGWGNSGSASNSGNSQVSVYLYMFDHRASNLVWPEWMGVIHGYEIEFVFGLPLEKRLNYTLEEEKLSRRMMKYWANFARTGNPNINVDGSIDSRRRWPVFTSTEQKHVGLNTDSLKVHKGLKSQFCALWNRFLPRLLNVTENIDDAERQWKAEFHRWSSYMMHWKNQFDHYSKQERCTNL
Description: Compound was evaluated for the inhibition of acetylcholinesterase (AChE) in electric eel

Acetylcholinesterase [6] = target: T3, Acetylcholinesterase (Bos taurus, UniProt P23795); experiment: Compound was evaluated for the inhibition of acetylcholinesterase (AChE) in bovine erythrocytes; format: cell-based
T3 sequence (P23795 whole entry): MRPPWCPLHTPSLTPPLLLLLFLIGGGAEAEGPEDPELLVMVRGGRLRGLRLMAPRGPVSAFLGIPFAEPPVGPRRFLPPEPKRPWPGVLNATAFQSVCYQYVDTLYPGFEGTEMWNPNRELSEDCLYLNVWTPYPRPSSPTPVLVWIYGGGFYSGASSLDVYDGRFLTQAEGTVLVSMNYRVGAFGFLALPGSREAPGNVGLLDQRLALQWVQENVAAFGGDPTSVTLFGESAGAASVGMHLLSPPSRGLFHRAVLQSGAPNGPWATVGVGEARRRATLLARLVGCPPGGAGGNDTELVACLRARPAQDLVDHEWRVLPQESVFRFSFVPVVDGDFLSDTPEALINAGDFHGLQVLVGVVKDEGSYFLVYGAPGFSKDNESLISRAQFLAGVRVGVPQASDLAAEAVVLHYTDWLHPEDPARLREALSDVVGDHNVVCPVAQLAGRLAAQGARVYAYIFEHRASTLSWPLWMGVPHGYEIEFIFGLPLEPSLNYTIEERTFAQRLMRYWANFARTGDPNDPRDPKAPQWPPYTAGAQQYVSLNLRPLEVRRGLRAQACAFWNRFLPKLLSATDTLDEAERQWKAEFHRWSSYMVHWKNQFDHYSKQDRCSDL

Acetylcholinesterase [7] = target: T3, Acetylcholinesterase
Description: Compound was evaluated for the inhibition of acetylcholinesterase (AChE) in bovine brain

Acetylcholinesterase [8] = target: T1, Acetylcholinesterase
Description: Compound was evaluated for the inhibition of acetylcholinesterase (AChE) in Torpedo californica

Acetylcholinesterase [9] = target: T3, Acetylcholinesterase; remark: listed apart in the source
Acetylcholinesterase [10] = target: T2, Acetylcholinesterase; experiment: Compound was evaluated for the inhibition of acetylcholinesterase in electric eel

| SMILES | Ki (Acetylcholinesterase [1]) [µM] | KI' [2] [µM] | IC50 (Acetylcholinesterase [3]) [µM] | IC50 (Acetylcholinesterase [4]) [µM] | IC50 (Acetylcholinesterase [5]) [µM] | IC50 (Acetylcholinesterase [6]) [µM] | IC50 (Acetylcholinesterase [7]) [µM] | IC50 (Acetylcholinesterase [8]) [µM] | IC50 (Acetylcholinesterase [9]) [µM] | IC50 (Acetylcholinesterase [10]) [µM] |
| --- | --- | --- | --- | --- | --- | --- | --- | --- | --- | --- |
| CN(C)c1ccc(CC(=O)NCCCCCCCCCCCNC23CC4CC(CC(C4)C2)C3)cc1 | 2.1 | 5.2 |  |  |  |  |  |  |  |  |
| CN(C)c1ccc(CC(=O)NCCCCCCCCNC23CC4CC(CC(C4)C2)C3)cc1 | 5.5 | 10 | > 100 | 10 | 28 | > 100 | > 100 |  |  |  |
| CN(C)c1ccc(CC(=O)NCCCCCCCCCCCCNC23CC4CC(CC(C4)C2)C3)cc1 | 1.8 | 4.1 | > 100 |  | 8.9 |  | 20 | 3.3 | 19 |  |
| CN(C)c1ccc(CC(=O)NCCCCCCCCCCNC23CC4CC(CC(C4)C2)C3)cc1 | 2.5 | 5.3 | > 100 | 5.3 |  |  | 77 |  | 95 | 14 |
| CN(C)c1ccc(CC(=O)NCCCCCCCCCNC23CC4CC(CC(C4)C2)C3)cc1 | 3.4 | 7 |  |  |  |  |  |  |  |  |
| CN(C)c1ccc(CC(=O)NCCCCCCCNC23CC4CC(CC(C4)C2)C3)cc1 | 7 | 13 |  |  |  |  |  |  |  |  |
